Source: the NIST ThermoML archive (doi:10.1021/acs.jced.7b00783)
± gives the expanded uncertainty stated by the source.

Conditions: Liquid, Ebulliometric method (Recirculating still)

Row | Compound | vapor or sublimation pressure (351.45 K) [kPa] | vapor or sublimation pressure (352.72 K) [kPa]
1 | CCO [ethanol] | 101.3 ± 0.46 | –
2 | CCC(C)=O [butanone] | – | 101.3 ± 0.46
